Columns and labels:
[1] = system: KRas-mediated phosphorylation of ERK in H727 cells; test: Inhibition of KRas-mediated phosphorylation of ERK (Cisbio HTRF pERK), H727 cells; assay type: cell-based; conditions: for IC50: HTRF pERK
Method in brief: (§1)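 H358, H727, H460 and AsPC-1 cells seeded at 6,000/well, treated 3 hrs with 10-dose 3-fold dilutions from 10 uM (0.8% DMSO); 0.2 uM trametinib as min control. Lysed 40 min at 4° C; lysate incubated 2 hrs at room temperature with d2/cryptate antibodies, HTRF read.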

[2] = system: KRas-mediated phosphorylation of ERK in AsPC-1 cells; test: Inhibition of KRas-mediated phosphorylation of ERK (Cisbio HTRF pERK), AsPC-1 cells; assay type: cell-based; conditions: for IC50: HTRF pERK
Method in brief: as §1

[3] = biological target: T1, KRas^G12D (Homo sapiens, UniProt P01116, G12D); test: KRas binding assay (TR-FRET tracer displacement), KRas G12D
T1 construct: Biotinylated KRas (corresponding to amino acids 1-169, produced at Accelegan Inc.); biotin (biotinylated); purchased Accelegan Inc

[4] = biological target: T2, KRas^G12V (Homo sapiens, UniProt P01116, G12V); test: KRas binding assay (TR-FRET tracer displacement), KRas G12V
T2 construct: Biotinylated KRas (corresponding to amino acids 1-169, produced at Accelegan Inc.); biotin (biotinylated); purchased Accelegan Inc

[5] = system: KRas-mediated phosphorylation of ERK in A549 cells; test: Inhibition of KRas-mediated phosphorylation of ERK (Cisbio HTRF pERK), A549 cells; assay type: cell-based; conditions: single point, 100 nM compound, 3 hrs; for inhibition at 0.1 µM: Homo sapiens, A549, 3 h
Description: (§2) Inhibition of KRas Phosphorylation of ERK (HTRF) by Exemplary Compounds of Formula (I) Cisbio HTRF Advanced PERK Assay Catalog #64[…] […] Add 10 mL of media to stop trypsinizing. Pipette the cells into a conical bottom 50 mL centrifuge tube and centrifuge 5 min×1000 rpm. […] Re-suspend the cell pellet in media, take a cell count, and then adjust the cell density using fresh media. […] Seed 6,000 cells into cell culture plate with 50 μL media. […] Use Tecan to complete the compound addition. Compounds start from 10 uM top, 3-fold dilution, and 10 doses. The final DMSO concentration is 0.8%. Dispensed 0.2 uM Trametinib as Min control. […] Incubate cell plate for 3 hrs in the incubator. […] Dilute 1 volume of 4× lysis buffer with 3 volumes of deionized water. […] Keep lysis buffer on the ice. […] At the end of the compound treatment, flick-off the media. […] Add 35 μL of lysis buffer per well using a Multidrop Combi. Then place on a plate agitator shaking at 300 rpm at 4° C. for 40 mins. […] Make up the HTRF antibody buffer. For each assay plate, mix 50 μL of d2-conjugate antibody with 950 μL of detection buffer. Similarly, mix 50 μL of Cryptate antibody with 950 μL of detection buffer. Then mix the two diluted antibodies together. […] Dispense 3.4 μL the antibody buffer to wells of an empty assay plate. Seal the plate and centrifuge plate 30 sec×1000 rpm. […] At the end of the 4° C. lysis, centrifuge the lysate plates 3 mins×1500 rpm. […] Use the Bravo to transfer 13.6 μL of lysate from cell culture plate to assay plate. Then incubate assay plate for 2 hrs at room temperature. 8. At the end of incubation, read plate on the Envision after centrifuging plate 30 sec×1000 rpm.

[6] = system: KRas-mediated phosphorylation of ERK in HCT116 cells; test: Inhibition of KRas-mediated phosphorylation of ERK (Cisbio HTRF pERK), HCT116 cells; assay type: cell-based; conditions: single point, 100 nM compound, 3 hrs; for inhibition at 0.1 µM: Homo sapiens, HCT-116, 3 h
Description: as §2

[7] = system: KRas-mediated phosphorylation of ERK in H460 cells; test: Inhibition of KRas-mediated phosphorylation of ERK (Cisbio HTRF pERK), H460 cells; assay type: cell-based; conditions: single point, 100 nM compound, 3 hrs; for inhibition at 0.1 µM: Homo sapiens, NCI-H460, 3 h
Description: as §2

[8] = system: KRas-mediated phosphorylation of ERK in H358 cells; test: Inhibition of KRas-mediated phosphorylation of ERK (Cisbio HTRF pERK), H358 cells; assay type: cell-based; conditions: single point, 100 nM compound, 3 hrs; for inhibition at 0.1 µM: Homo sapiens, NCI-H358, 3 h
Description: as §2

[9] = biological target: T3, KRas^G12R (Homo sapiens, UniProt P01116, G12R); test: KRas binding assay (TR-FRET tracer displacement), KRas G12R
T3 construct: Biotinylated KRas (corresponding to amino acids 1-169, produced at Accelegan Inc.); biotin (biotinylated); purchased Accelegan Inc

[10] = Homo sapiens, NCI-H727, H727 cells
[11] = Homo sapiens, ASPC1, AsPC-1 cells

T2 sequence (P01116 1-169 isoform P01116-2 G12V): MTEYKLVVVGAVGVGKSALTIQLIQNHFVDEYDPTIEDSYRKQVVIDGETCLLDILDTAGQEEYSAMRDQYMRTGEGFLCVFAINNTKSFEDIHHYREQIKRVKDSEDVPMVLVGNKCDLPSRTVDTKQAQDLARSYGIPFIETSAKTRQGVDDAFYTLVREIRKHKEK
T1 sequence (P01116 1-169 isoform P01116-2 G12D): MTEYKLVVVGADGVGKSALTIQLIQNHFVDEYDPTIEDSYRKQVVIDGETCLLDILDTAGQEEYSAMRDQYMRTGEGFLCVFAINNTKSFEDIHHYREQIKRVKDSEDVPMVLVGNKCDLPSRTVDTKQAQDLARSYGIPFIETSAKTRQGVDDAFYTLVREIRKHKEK
T3 sequence (P01116 1-169 isoform P01116-2 G12R): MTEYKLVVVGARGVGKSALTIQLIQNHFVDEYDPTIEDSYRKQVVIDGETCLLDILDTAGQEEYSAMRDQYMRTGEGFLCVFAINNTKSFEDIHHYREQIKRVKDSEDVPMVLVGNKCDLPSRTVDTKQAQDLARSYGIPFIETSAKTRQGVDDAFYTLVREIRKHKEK

## CCc1c(F)ccc2cc(O)cc(-c3ncc4c(N5CC6CCC(C5)C6C#N)nc(OC[C@@]56CCCN5C[C@H](F)C6)nc4c3F)c12 (single isomer, unassigned) [Example 560]
[1]; H727 cells
  IC50: 724 nM
[1]; single point, 100 nM compound, 3 hrs, H727 cells, 0.1 µM
  Inhibition (HTRF % at 100 nM) of KRas-mediated Phosphorylation of ERK, H727: 8%
[2]; AsPC-1 cells
  IC50: 3100 nM
[2]; single point, 100 nM compound, 3 hrs, AsPC-1 cells, 0.1 µM
  Inhibition (HTRF % at 100 nM) of KRas-mediated Phosphorylation of ERK, AsPC-1: 5%
[3]
  IC50: 262 nM
[4]
  IC50: 85 nM
[5]; 0.1 µM
  Inhibition (HTRF % at 100 nM) of KRas-mediated Phosphorylation of ERK, A549: 15%
[6]; 0.1 µM
  Inhibition (HTRF % at 100 nM) of KRas-mediated Phosphorylation of ERK, HCT116: 12%
[7]; 0.1 µM
  Inhibition (HTRF % at 100 nM) of KRas-mediated Phosphorylation of ERK, H460: 10%
[8]; 0.1 µM
  Inhibition (HTRF % at 100 nM) of KRas-mediated Phosphorylation of ERK, H358: 4%
[9]
  IC50: 182 nM

## CCc1c(F)ccc2cc(O)cc(-c3ncc4c(NCc5cc(C(=O)N(C)C)nn5C5CCS(=O)(=O)C5)nc(OC[C@@]56CCCN5C[C@H](F)C6)nc4c3F)c12 (single isomer, unassigned) [Example 694]
[1]; [10]
  IC50: 605 nM
[2]; [11]
  IC50: 985 nM
[3]
  IC50: 106 nM
[4]
  IC50: 17 nM
[5]
  inhibition at 0.1 µM: -8%
[6]
  inhibition at 0.1 µM: -10%
[7]
  inhibition at 0.1 µM: -3%
[8]
  inhibition at 0.1 µM: 9%
[9]
  IC50: 38 nM

## CCc1c(F)ccc2cc(O)cc(-c3ncc4c(N5CCC[C@@](C)(O)C5)nc(N5CC(C)(N)C5)nc4c3F)c12 [Example 530, (R)-1-(2-(3-amino-3-methylazetidin-1-yl)-7-(8-ethyl-7-fluoro-3-hydroxynaphthalen-1-yl)-8-fluoropyrido[4,3-d]pyrimidin-4-yl)-3-methylpiperidin-3-ol]
[1]; [10]
  IC50: 4390 nM
[2]; [11]
  IC50: 2770 nM
[3]
  IC50: 59 nM
[4]
  IC50: 66 nM
[5]
  inhibition at 0.1 µM: 15%
[6]
  inhibition at 0.1 µM: -6%
[7]
  inhibition at 0.1 µM: 18%
[8]
  inhibition at 0.1 µM: 6%
[9]
  IC50: 91 nM

## CCc1c(F)ccc2cc(O)cc(-c3ncc4c(N5CCC[C@@](C)(O)C5)nc(N5CC(N(C)C)C5)nc4c3F)c12 [Example 533, (R)-1-(2-(3-(dimethylamino)azetidin-1-yl)-7-(8-ethyl-7-fluoro-3-hydroxynaphthalen-1-yl)-8-fluoropyrido[4,3-d]pyrimidin-4-yl)-3-methylpiperidin-3-ol]
[1]; [10]
  IC50: 1970 nM
[2]; [11]
  IC50: 1500 nM
[3]
  IC50: 72 nM
[4]
  IC50: 105 nM
[5]
  inhibition at 0.1 µM: 27%
[6]
  inhibition at 0.1 µM: 8%
[7]
  inhibition at 0.1 µM: 8%
[8]
  inhibition at 0.1 µM: -7%
[9]
  IC50: 119 nM

## CCc1c(F)ccc2cc(O)cc(-c3ncc4c(N5CCCC6(C5)NC(=O)NC6=O)nc(N5CC(N(C)C)C5)nc4c3F)c12 (stereo not shown) [Example 534, 7-(2-(3-(dimethylamino)azetidin-1-yl)-7-(8-ethyl-7-fluoro-3-hydroxynaphthalen-1-yl)-8-fluoropyrido[4,3-d]pyrimidin-4-yl)-1,3,7-triazaspiro[4.5]decane-2,4-dione]
[1]; [10]
  IC50: 1620 nM
[2]; [11]
  IC50: 5810 nM
[3]
  IC50: 7 nM
[4]
  IC50: 5 nM
[5]
  inhibition at 0.1 µM: -19%
[6]
  inhibition at 0.1 µM: -6%
[7]
  inhibition at 0.1 µM: -6%
[8]
  inhibition at 0.1 µM: -9%
[9]
  IC50: 2 nM

## CCc1c(F)ccc2cc(O)cc(-c3ncc4c(N5CCCn6nc(C(=O)N(C)C)cc6C5)nc(N5CC(N(C)C)C5)nc4c3F)c12 [Example 535, 5-(2-(3-(dimethylamino)azetidin-1-yl)-7-(8-ethyl-7-fluoro-3-hydroxynaphthalen-1-yl)-8-fluoropyrido[4,3-d]pyrimidin-4-yl)-N,N-dimethyl-5,6,7,8-tetrahydro-4H-pyrazolo[1,5-a][1,4]diazepine-2-carboxamide]
[1]; [10]
  IC50: 2190 nM
[2]; [11]
  IC50: 1620 nM
[3]
  IC50: 17 nM
[4]
  IC50: 27 nM
[5]
  inhibition at 0.1 µM: -9%
[6]
  inhibition at 0.1 µM: -3%
[7]
  inhibition at 0.1 µM: 16%
[8]
  inhibition at 0.1 µM: -8%
[9]
  IC50: 44 nM

## C#CC1(F)CCN(c2nc(OC[C@@]34CCCN3C[C@H](F)C4)nc3c(F)c(-c4cc(O)cc5ccc(F)c(CC)c45)ncc23)CC1 [Example 553, 5-ethyl-4-(4-(4-ethynyl-4-fluoropiperidin-1-yl)-8-fluoro-2-(((2R,7aS)-2-fluorotetrahydro-1H-pyrrolizin-7a(5H)-yl)methoxy)pyrido[4,3-d]pyrimidin-7-yl)-6-fluoronaphthalen-2-ol]
[1]; [10]
  IC50: 1630 nM
[2]; [11]
  IC50: 5160 nM
[3]
  IC50: 864 nM
[4]
  IC50: 77 nM
[5]
  inhibition at 0.1 µM: 0%
[6]
  inhibition at 0.1 µM: 6%
[7]
  inhibition at 0.1 µM: 0%
[8]
  inhibition at 0.1 µM: 3%
[9]
  IC50: 79 nM

## CCc1c(F)ccc2cc(O)cc(-c3ncc4c(N5CCCc6ncncc6C5)nc(OC[C@@]56CCCN5C[C@H](F)C6)nc4c3F)c12 [Example 582, 4-(4-(8,9-dihydro-5H-pyrimido[5,4-c]azepin-6(7H)-yl)-8-fluoro-2-(((2R,7aS)-2-fluorohexahydro-1H-pyrrolizin-7a-yl)methoxy)pyrido[4,3-d]pyrimidin-7-yl)-5-ethyl-6-fluoronaphthalen-2-ol]
[1]; [10]
  IC50: 328 nM
[2]; [11]
  IC50: 130 nM
[3]
  IC50: 3 nM
[4]
  IC50: 11 nM
[5]
  inhibition at 0.1 µM: 32%
[6]
  inhibition at 0.1 µM: 13%
[7]
  inhibition at 0.1 µM: 3%
[8]
  inhibition at 0.1 µM: 15%
[9]
  IC50: 10 nM

## CCc1c(F)ccc2cc(O)cc(-c3ncc4c(N5CCCc6nnncc6C5)nc(OC[C@@]56CCCN5C[C@H](F)C6)nc4c3F)c12 [Example 584, 4-(4-(8,9-dihydro-5H-[1,2,3]triazino[5,4-c]azepin-6(7H)-yl)-8-fluoro-2-(((2R,7aS)-2-fluorohexahydro-1H-pyrrolizin-7a-yl)methoxy)pyrido[4,3-d]pyrimidin-7-yl)-5-ethyl-6-fluoronaphthalen-2-ol]
[1]; Homo sapiens, NCI-H727, 3 h, single point, 100 nM compound, 3 hrs, H727 cells
  inhibition at 0.1 µM: -18%
[1]; [10]
  IC50: 981 nM
[2]; Homo sapiens, ASPC1, 3 h, single point, 100 nM compound, 3 hrs, AsPC-1 cells
  inhibition at 0.1 µM: -20%
[2]; [11]
  IC50: 231 nM
[3]
  IC50: < 2 nM
[4]
  IC50: 6 nM
[5]
  inhibition at 0.1 µM: 14%
[6]
  inhibition at 0.1 µM: 3%
[7]
  inhibition at 0.1 µM: 11%
[8]
  inhibition at 0.1 µM: 15%
[9]
  IC50: 12 nM

## CCc1c(F)ccc2cc(O)cc(-c3ncc4c(N5CCCC(C6CCOC6)C5)nc(OC[C@@]56CCCN5C[C@H](F)C6)nc4c3F)c12 (stereo partly drawn) [Example 595, 5-ethyl-6-fluoro-4-(8-fluoro-2-(((2R,7aS)-2-fluorohexahydro-1H-pyrrolizin-7a-yl)methoxy)-4-(3-(tetrahydrofuran-3-yl)piperidin-1-yl)pyrido[4,3-d]pyrimidin-7-yl)naphthalen-2-ol]
[1]; [10]
  IC50: 1190 nM
[2]; [11]
  IC50: 1570 nM
[3]
  IC50: 194 nM
[4]
  IC50: 38 nM
[5]
  inhibition at 0.1 µM: 3%
[6]
  inhibition at 0.1 µM: -9%
[7]
  inhibition at 0.1 µM: 12%
[8]
  inhibition at 0.1 µM: -1%
[9]
  IC50: 85 nM

## CCc1c(F)ccc2cc(O)cc(-c3ncc4c(N5CCC(C)(O)C(F)(F)CC5)nc(OC[C@@]56CCCN5C[C@H](F)C6)nc4c3F)c12 (stereo partly drawn) [Example 605, 1-(7-(8-ethyl-7-fluoro-3-hydroxynaphthalen-1-yl)-8-fluoro-2-(((2R,7aS)-2-fluorotetrahydro-1H-pyrrolizin-7a(5H)-yl)methoxy)pyrido[4,3-d]pyrimidin-4-yl)-5,5-difluoro-4-methylazepan-4-ol]
[1]; [10]
  IC50: 946 nM
[2]; [11]
  IC50: 1560 nM
[3]
  IC50: 119 nM
[4]
  IC50: 71 nM
[5]
  inhibition at 0.1 µM: 20%
[6]
  inhibition at 0.1 µM: -12%
[7]
  inhibition at 0.1 µM: 7%
[8]
  inhibition at 0.1 µM: 3%
[9]
  IC50: 47 nM

From patent US20260015350A1, “AZAQUINAZOLINE PAN-KRAS INHIBITORS” (Mirati Therapeutics, Inc., priority 2022, published 2026)
